This note sets out measurements from patent US20140187548A1, “6 SUBSTITUTED IMIDAZOPYRAZINES FOR USE AS MPS-1 AND TKK INHIBITORS IN THE TREATMENT OF HYPERPROLIFERATIVE DISORDERS” (BAYER INTELLECTUAL PROPERTY GMBH, priority 2010, published 2014).

SMILES strings stand for the structures.

The test deals with T1, human kinase Mps-1 (Homo sapiens, UniProt P33981).
T1 construct: N-terminally GST-tagged human full length recombinant Mps-1 kinase; GST (N); purchased Invitrogen, Karslruhe, Germany PV4071
T1 sequence (P33981 1-857): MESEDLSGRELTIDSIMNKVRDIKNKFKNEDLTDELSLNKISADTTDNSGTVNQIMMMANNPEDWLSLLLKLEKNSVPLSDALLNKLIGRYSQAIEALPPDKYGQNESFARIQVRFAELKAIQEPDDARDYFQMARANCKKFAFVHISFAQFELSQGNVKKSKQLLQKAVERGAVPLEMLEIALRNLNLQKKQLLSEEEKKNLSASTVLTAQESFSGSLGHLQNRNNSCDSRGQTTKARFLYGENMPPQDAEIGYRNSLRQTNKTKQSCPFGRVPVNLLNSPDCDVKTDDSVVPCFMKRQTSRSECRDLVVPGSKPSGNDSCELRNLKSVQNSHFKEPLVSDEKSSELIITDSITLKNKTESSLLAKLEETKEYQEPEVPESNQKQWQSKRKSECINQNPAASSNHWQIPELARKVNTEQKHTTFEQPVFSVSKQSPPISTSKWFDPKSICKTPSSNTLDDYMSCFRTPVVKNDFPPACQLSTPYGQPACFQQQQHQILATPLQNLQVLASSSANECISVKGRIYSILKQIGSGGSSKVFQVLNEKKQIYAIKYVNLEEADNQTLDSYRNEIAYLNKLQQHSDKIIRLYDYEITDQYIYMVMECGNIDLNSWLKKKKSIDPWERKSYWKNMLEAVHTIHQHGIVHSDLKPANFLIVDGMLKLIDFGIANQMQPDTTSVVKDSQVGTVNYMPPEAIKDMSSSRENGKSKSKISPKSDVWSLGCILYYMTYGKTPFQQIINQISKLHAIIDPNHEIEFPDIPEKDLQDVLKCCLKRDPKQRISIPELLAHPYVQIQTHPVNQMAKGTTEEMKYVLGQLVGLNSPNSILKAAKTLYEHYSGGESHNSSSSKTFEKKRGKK
In words: Mps-1 kinase assay (TR-FRET). The test is classed as biochemical. The note with it: N-terminally GST-tagged human full length recombinant Mps-1; 10 μM ATP; 1 μM peptide substrate; 15 min pre-incubation; 60 min at 22° C. The protocol: The human kinase Mps-1 phosphorylates a biotinylated substrate peptide. Detection of the phosphorylated product is achieved by time-resolved fluorescence resonance energy transfer (TR-FRET) from Europium-labelled anti-phospho-Serine/Threonine antibody as donor to streptavidin labelled with cross-linked allophycocyanin (SA-XLent) as acceptor. Compounds are tested for their inhibition of the kinase activity.
N-terminally GST-tagged human full length recombinant Mps-1 kinase (purchased from Invitrogen, Karslruhe, Germany, cat. no PV4071) was used. As substrate for the kinase reaction a biotinylated peptide of the amino-acid sequence […] (C-terminus in amide form, purchased from Biosynthan GmbH, Berlin) was used.
The concentration of Mps-1 in the assay was adjusted to the activity of the enzyme lot and was chosen appropriate to have the assay in the linear range, typical enzyme concentrations were in the range of about 1 nM (final conc. in the 5 μl assay volume).
The resulting mixture was incubated 1 h at 22° C. to allow the binding of the phosphorylated peptide to the anti-phospho(Ser/Thr)-Europium-antibody. Subsequently the amount of phosphorylated substrate was evaluated by measurement of the resonance energy transfer from the Europium-labelled anti-phospho(Ser/Thr) antibody to the Streptavidin-XLent. Therefore, the fluorescence emissions at 620 nm and 665 nm after excitation at 350 nm was measured in a Viewlux TR-FRET reader (PerkinElmer LAS, Rodgau-Jügesheim, Germany). The “blank-corrected normalized ratio” (a Viewlux specific readout, similar to the traditional ratio of the emissions at 665 nm and at 622 nm, in which blank and Eu-donor crosstalk are subtracted from the 665 nm signal before the ratio is calculated) was taken as the measure for the amount of phosphorylated substrate.
Background: TR-FRET usually uses a lanthanide donor and a delayed reading to cut background.
The term IC50 denotes the concentration that gives 50% inhibition. For the molecule `Cc1cc(-c2cnc3c(NCCCC(C)O)nc(-c4ccc(F)cc4)cn23)ccc1C(=O)NC1CC1` (stereo not shown) [Example 10-12, N-cyclopropyl-4-{6-(4-fluorophenyl)-8-[(4-hydroxypentyl)amino]imidazo[1,2-a]pyrazin-3-yl}-2-methylbenzamide], the IC50 turned out to be 7.1 nM.
The value for `CC(C)CNc1nc(-c2ccc(Cl)c(C(=O)NC3CC3)c2)cn2c(-c3ccc(C(=O)NC4CC4)cc3)cnc12` [Example 1-84, 2-chloro-N-cyclopropyl-5-{3-[4-(cyclopropyl-carbamoyl)phenyl]-8-[(2-methylpropyl)amino]imidazo[1,2-a]pyrazin-6-yl}benzamide] was 4.5 nM; that for `COc1cccc(-c2cn3c(-c4ccc(C(=O)NC5CC5)cc4)cnc3c(NCC(C)C)n2)c1` [Example 1-38, N-cyclopropyl-4-{6-(3-methoxyphenyl)-8-[(2-methylpropyl)amino]imidazo[1,2-a]pyrazin-3-yl}benzamide] was 4.8 nM.
The value for `O=C(NC1CC1)c1ccc(-c2cnc3c(NCCCC(F)(F)F)nc(-c4ccccc4)cn23)cc1` [Example 2-51, N-cyclopropyl-4-{6-phenyl-8-[(4,4,4-trifluorobutyl)amino]imidazo[1,2-a]pyrazin-3-yl}benzamide] was 2.4 nM; that for `CC(C)CNc1nc(-c2ccc(F)cc2)cn2c(-c3ccc(C(=O)NC4CC4)cc3)cnc12` [Example 1-6, N-cyclopropyl-4-{6-(4-fluorophenyl)-8-[(2-methylpropyl)amino]imidazo[1,2-a]pyrazin-3-yl}benzamide] was 2.3 nM.
Turning to `CC(C)CNc1nc(-c2ccc3ccccc3c2)cn2c(-c3ccc(C(=O)NC4CC4)cc3)cnc12` [Example 1-42, N-cyclopropyl-4-{8-[(2-methylpropyl)amino]-6-(naphthalen-2-yl)imidazo[1,2-a]pyrazin-3-yl}benzamide], the IC50 is 49 nM.
In the case of `Cc1cc(-c2cnc3c(NCCC(F)(F)F)nc(-c4cccc(CO)c4)cn23)ccc1C(=O)NC1CC1` [Example 1-122, N-cyclopropyl-4-{6-[3-(hydroxymethyl)phenyl]-8-[(3,3,3-trifluoropropyl)amino]imidazo[1,2-a]pyrazin-3-yl}-2-methyl-benzamide], the IC50 amounted to 11.9 nM.
Consider `CC(C)CNc1nc(-c2ccc(F)cc2)cn2c(-c3ccc(C(=O)NC4CC4)c(F)c3)cnc12` [Example 1-109, N-cyclopropyl-2-fluoro-4-{6-(4-fluorophenyl)-8-[(2-methylpropyl)amino]imidazo[1,2-a]pyrazin-3-yl}benzamide], for which the IC50 was found to be 5.3 nM.
Regarding `Cc1cccc(-c2cn3c(-c4ccc(C(=O)NC5CC5)cc4)cnc3c(NCC(C)C)n2)c1` [Example 1-8, N-cyclopropyl-4-{6-(3-methylphenyl)-8-[(2-methylpropyl)amino]imidazo[1,2-a]pyrazin-3-yl}benzamide], the half-maximal inhibitory concentration (IC50) came to 4.9 nM.
`CC(C)CNc1nc(-c2cccc3cnccc23)cn2c(-c3ccc(C(=O)NC4CC4)cc3)cnc12` [Example 1-32, N-cyclopropyl-4-{6-(iso-quinolin-5-yl)-8-[(2-methylpropyl)amino]imidazo[1,2-a]pyrazin-3-yl}benzamide]: the IC50 was 1.3 nM.
In the case of `O=C(NC1CC1)c1ccc(-c2cnc3c(NCCN4CCNC4=O)nc(-c4ccccc4)cn23)cc1` [Example 2-47, N-cyclopropyl-4-(8-{[2-(2-oxoimidazolidin-1-yl)ethyl]amino}-6-phenylimidazo[1,2-a]pyrazin-3-yl)benzamide], the IC50 is 20 nM.
The value for `O=C(NC1CC1)c1ccc(-c2cnc3c(NCc4ccccc4F)nc(-c4ccccc4)cn23)cc1` [Example 2-13, N-cyclopropyl-4-{8-[(2-fluorobenzyl)amino]-6-phenylimidazo[1,2-a]pyrazin-3-yl}benzamide] was 1.4 nM; that for `COc1c(C)cc(-c2cn3c(-c4ccc(C(=O)NC5CC5)cc4)cnc3c(NCC(C)C)n2)cc1C` [Example 1-68, N-cyclopropyl-4-{6-(4-methoxy-3,5-dimethylphenyl)-8-[(2-methyl-propyl)amino]imidazo [1,2-a]pyrazin-3-yl} benzamide] was 19.7 nM; that for `O=C(NC1CC1)c1ccc(-c2cnc3c(NCCCCO)nc(-c4ccccc4)cn23)cc1` [Example 2-78, N-cyclopropyl-4-{8-[(4-hydroxybutyl)amino]-6-phenylimidazo[1,2-a]pyrazin-3-yl}benzamide] was 1.1 nM.
Consider `NC(=O)CCNc1nc(-c2ccccc2)cn2c(-c3ccc(C(=O)NC4CC4)cc3)cnc12` [Example 2-42, 4-{8-[(3-amino-3-oxopropyl)amino]-6-phenylimidazo[1,2-a]pyrazin-3-yl}-N-cyclopropyl-benzamide], for which the IC50 came out at 5 nM.
Next, `CC(C)CNc1nc(-c2ccc(C(=O)NC(C)C)cc2)cn2c(-c3ccc(C(=O)NC4CC4)cc3)cnc12` [Example 1-34, 4-{3-[4-(cyclopropyl-carbamoyl)phenyl]-8-[(2-methylpropyl)amino]imidazo[1,2-a]pyrazin-6-yl}-N-(propan-2-yl) benzamide]: 4.2 nM.
Take `O=C(NC1CC1)c1ccc(-c2cnc3c(NCCCN4CCOCC4)nc(-c4ccccc4)cn23)cc1` [Example 2-3, N-cyclopropyl-4-(8-{[3-(morpholin-4-yl)propyl]amino}-6-phenylimidazo[1,2-a]pyrazin-3-yl)benzamide]: the IC50 was 6.9 nM.
Turning to `CC(C)CNc1nc(-c2ccc(O)cc2)cn2c(-c3ccc(C(=O)NC4CC4)cc3)cnc12` [Example 1-67, N-cyclopropyl-4-{6-(4-hydroxyphenyl)-8-[(2-methylpropyl)amino]imidazo[1,2-a]pyrazin-3-yl}benzamide], the IC50 worked out at 3.5 nM.
The value for `NCCCCNc1nc(-c2ccccc2)cn2c(-c3ccc(C(=O)NC4CC4)cc3)cnc12` [Example 2-67] was 7.2 nM; that for `Cc1cc(-c2cnc3c(NCC4CCOCC4)nc(-c4ccc(F)cc4)cn23)ccc1C(=O)NC1CC1` [Example 10-14, N-cyclopropyl-4-{6-(4-fluorophenyl)-8-[(tetra-hydro-2H-pyran-4-ylmethyl)amino]imidazo [1,2-a]pyrazin-3-yl}-2-methylbenzamide] was 3.3 nM.
The value for `O=C(NC1CC1)c1ccc(-c2cnc3c(NCC(F)F)nc(-c4ccccc4)cn23)cc1` [Example 2-52, N-cyclopropyl-4-{8-[(2,2-difluoroethyl)amino]-6-phenylimidazo[1,2-a]pyrazin-3-yl}benzamide] was 3.1 nM; that for `CC(C)CNc1nc(-c2ccc(S(=O)(=O)NC3CC3)cc2)cn2c(-c3ccc(C(=O)NC4CC4)cc3)cnc12` [Example 1-126, N-cyclopropyl-4-{6-[4-(cyclopropylsulfamoyl)phenyl]-8-[(2-methylpropyl)amino]imidazo[1,2-a]pyrazin-3-yl}benzamide] was 4.4 nM; that for `Cc1cc(-c2cn3c(-c4ccc(C(=O)NC5CC5)cc4)cnc3c(NCC(C)C)n2)cc(C)c1O` [Example 1-12, N-cyclopropyl-4-{6-(4-hydroxy-3,5-dimethyl-phenyl)-8-[(2-methyl-propyl)amino]imidazo [1,2-a]pyrazin-3-yl} benzamide] was 3.8 nM.
As for `NCCNc1nc(-c2ccccc2)cn2c(-c3ccc(C(=O)NC4CC4)cc3)cnc12` [Example 2-69, 4-{8-[(2-Aminoethyl)amino]-6-phenylimidazo[1,2-a]pyrazin-3-yl}-N-cyclopropylbenzamide], the IC50 is 54.8 nM.
As for `CC(C)CNc1nc(-c2cccc(C#N)c2)cn2c(-c3ccc(C(=O)NC4CC4)cc3)cnc12` [Example 1-72, 4-{6-(3-cyanophenyl)-8-[(2-methylpropyl)amino]imidazo[1,2-a]pyrazin-3-yl}-N-cyclo-propylbenzamide], the IC50 is 4.6 nM.
